Test: in vitro
Conditions: human, hela cells, % viability

| Compound | viability at 28.5 h, 10 µM |
| --- | --- |
| CCCc1c(O)nc(SCC(=O)NCc2ccco2)[nH]c1=O [CBK073278] | 95.2% |
| CCCCc1c(O)nc(SCC(=O)NCC2CCCO2)[nH]c1=O (stereo not drawn) [CBK073281] | 97.6% |
| C=CCNC(=O)CSc1nc(O)cc(=O)[nH]1 [CBK073298] | 104% |
| C=CCc1c(O)nc(SCC(=O)N2CCOCC2)[nH]c1=O [CBK073301] | 91.8% |
| O=C(O)CC(NS(=O)(=O)c1cccc2nsnc12)C(=O)O (stereo not drawn) [CBK073316] | 112% |
| C=CCOC(=O)C1=C(C)N=C2SCCC(=O)N2C1c1ccc(SC)cc1 (stereo not drawn) [CBK073405] | 93.5% |
| COc1ccc(C)cc1S(=O)(=O)Nc1cc(N2CCN(C(C)C)CC2)c2occc2c1 [CBK073625C] | 92% |
| CC(C)C(=O)Nc1cc2cccnc2nc1-c1ccc(N(C)C)cc1 [CBK073650] | 90.6% |
| CC(C)C(=O)Nc1cc2cccnc2nc1-c1cccc(C(F)(F)F)c1 [CBK073657] | 93.7% |
| COc1ccc(C(C)C)cc1-c1nc2ncccc2cc1NC(=O)C(C)C [CBK073659] | 87.8% |
| COc1cc(F)ccc1-c1ccc2ccc(NC(=O)C(C)C)nc2n1 [CBK073666] | 87.1% |
| CCCCc1ccc(-c2ccc3ccc(NC(=O)C(C)C)nc3n2)cc1 [CBK073668] | 93% |
| CC(C)C(=O)Nc1ccc2ccc(-c3ccc(C(C)(C)C)cc3)nc2n1 [CBK073669] | 106% |
| CC(C)C(=O)Nc1ccc2c(-c3ccccc3)ccnc2n1 [CBK073671] | 101% |
| CC(C)C(=O)Nc1ccc2c(-c3ccc4c(c3)CCO4)ccnc2n1 [CBK073672] | 87.7% |
| CC(C)C(=O)Nc1ccc2c(-c3ccc4c(c3)OCCCO4)ccnc2n1 [CBK073675] | 96.7% |
| Oc1cc2cccnc2nc1-c1ccc2c(c1)CCO2 [CBK073698] | 76% |
| COc1ccc(-c2nc3ncccc3cc2O)cc1C [CBK073700] | 70.1% |
| CCCCc1ccc(-c2nc3ncccc3cc2O)cc1 [CBK073702] | 91.3% |
| Oc1cc2cccnc2nc1-c1ccc(OCc2ccccc2)c(F)c1 [CBK073708] | 91.2% |
| O=c1ccc2ccc(-c3ccsc3)nc2[nH]1 [CBK073710] | 97% |
| CC(C)(C)c1ccc(-c2ccc3ccc(=O)[nH]c3n2)cc1 [CBK073716] | 96.5% |

| Compound | viability at 28.5 h, 10 µM |
| --- | --- |
| CS(=O)(=O)c1ccc(-c2ccc3ccc(=O)[nH]c3n2)cc1 [CBK073719] | 86.7% |
| COc1cc(-c2ccc3ccc(=O)[nH]c3n2)cc(OC)c1OC [CBK073721] | 98.8% |
| O=c1ccc2ccc(-c3cccc(OCc4ccccc4)c3)nc2[nH]1 [CBK073722] | 95.9% |
| COc1ccc(-c2ccnc3[nH]c(=O)ccc23)cc1C [CBK073726] | 110% |
| O=c1ccc2c(-c3cccc(C(F)(F)F)c3)ccnc2[nH]1 [CBK073733] | 90.5% |
| COc1ccc(C(C)C)cc1-c1ccnc2[nH]c(=O)ccc12 [CBK073735] | 102% |
| COc1ccc([C@@]23CC[C@@H](NC(=O)Nc4ccc5c(c4)OC(F)(F)O5)C[C@@H]2N(C)CC3)cc1OC [CBK073743T] | 88.8% |
| CCNc1cc2ccccc2c(-c2cc(C(C)C)ccc2OC)n1 [CBK073777] | 110% |
| COc1ccc(C(C)C)cc1-c1nc(NS(C)(=O)=O)cc2ccccc12 [CBK073779] | 94.2% |
| CC(C)C(=O)Nc1cc2ccccc2c(-c2ccc(OCc3ccccc3)c(F)c2)n1 [CBK073783] | 89.8% |
| CS(=O)(=O)Nc1cc2ccccc2c(-c2ccc(OCc3ccccc3)c(F)c2)n1 [CBK073785] | 92.7% |
| CC(C)C(=O)Nc1cc2ccccc2c(-c2cccnc2)n1 [CBK073786] | 101% |
| CN1C(=O)C(CCNc2ccccc2)S/C1=N/C1CC2C=CC1C2 (stereo not drawn) [CBK073812] | 114% |
| c1ccc(C(CC2CCCCC2)NCc2cccnc2)cc1 (stereo not drawn) [CBK073816] | 96.3% |
| COc1ccc(C)cc1S(=O)(=O)Nc1cc(N2CCNC(C(F)(F)F)C2)c2occc2c1 (stereo not drawn) [CBK073818C] | 104% |
| COc1cc([C@@]23CC[C@@H](NC(=O)Nc4cc(F)ccc4F)C[C@@H]2N(C)CC3)ccc1OC(F)F [CBK073834] | 106% |
| Cc1ccc(S(=O)(=O)Nc2nccnc2-c2ccc(Cc3nnn[nH]3)cc2)cc1 [CBK073841] | 96.9% |
| O=C(O)CCC(=O)NCc1ccc(-c2nccnc2NS(=O)(=O)c2ccc(O)cc2)cc1 [CBK073843] | 106% |
| O=Cc1ccc(-c2nccnc2NS(=O)(=O)c2ccccc2)cc1 [CBK073845] | 97.3% |
| CCC(CC)C(=O)N1c2ccccc2C(C)(c2ccccc2)CC1(C)C (stereo not drawn) [CBK073862] | 91.5% |
| Cc1noc(C)c1S(=O)(=O)Nc1ccc2cc(Br)cnc2n1 [CBK073893] | 93.1% |
| O=S(=O)(Nc1ccc2cc(Br)cnc2n1)c1cccc2nsnc12 [CBK073894] | 82.8% |

| Compound | viability at 28.5 h, 10 µM |
| --- | --- |
| O=C(O)c1cc(S(=O)(=O)Nc2ccc3cc(Br)cnc3n2)c(F)cc1Cl [CBK073898] | 92.2% |
| CCNC(=O)c1cn(Cc2ccccc2)nn1 [CBK073904] | 97.9% |
| COc1ccc([C@@]23CC[C@@H](NC(=O)c4ccc(C(F)(F)F)cc4F)C[C@@H]2N(C)CC3)cc1OC [CBK073976T] | 108% |
| COc1ccc([C@@]23CC[C@@H](NC(=O)Nc4cc(F)c(C#N)cc4F)C[C@@H]2N(C)CC3)cc1OC [CBK073979T] | 98.2% |
| COc1ccc([C@@]23CC[C@@H](NC(=O)c4cccc(Cl)c4)C[C@@H]2N(C)CC3)cc1OC [CBK073982T] | 93.5% |
| O=S(=O)(Nc1cc(OC2CCCNC2)c2occc2c1)c1cc(F)ccc1F (stereo not drawn) [CBK073996C] | 105% |
| CC(C)[C@H]1SC(NC[C@H](C)c2ccccc2)=NC1=O [CBK074034] | 93.6% |
| FC(F)(F)Oc1ccccc1-c1nnc(NC2CCCCCC2)s1 [CBK074041] | 93.8% |
| CS(=O)(=O)Nc1nccnc1N1CCNCC1 [CBK074045T] | 105% |
| Cc1cccc(C(=O)N2CCCC(C)C2)c1 (stereo not drawn) [CBK074057] | 95.4% |
| COc1ccccc1CCCN1CCC2(C1)c1[nH]c3ccccc3c1CCN2S(C)(=O)=O (stereo not drawn) [CBK074095] | 113% |
| COc1ccc(C(c2ccccc2C)N(C)C(=O)C2CCNCC2)cn1 (stereo not drawn) [CBK074124] | 100% |
| COc1cc(C)ccc1S(=O)(=O)Nc1cc(OC2CCNCC2)c2occc2c1 [CBK074192C] | 98.6% |
| CCC1CCCCN1C(=O)c1cc2ccccc2s1 (stereo not drawn) [CBK074211] | 85.3% |
| COc1ccc([C@@]23CC[C@@H](NC(=O)c4ccc(-c5csnn5)cc4)C[C@@H]2N(C)CC3)cc1OC [CBK074256T] | 100% |
| COc1ccc([C@@]23CC[C@@H](NC(=O)c4cc(F)c(Cl)cc4Cl)C[C@@H]2N(C)CC3)cc1OC [CBK074264T] | 97.4% |
| CS(=O)(=O)Nc1nccnc1OC1CCNCC1 [CBK074265T] | 90.6% |
| CC1(CC(=O)N2CCCCCC2)SC(NC2CCCCCC2)=NC1=O (stereo not drawn) [CBK074269] | 96% |
| COc1ccc(CNC(C)C2COc3ccccc3O2)c(OC)c1 (stereo not drawn) [CBK074283G] | 88.8% |
| CCOC(=O)CCNC(C)C1COc2ccccc2O1 (stereo not drawn) [CBK074284G] | 101% |
| CCOC(=O)c1sc(-c2ccccc2)nc1O [CBK074298] | 96.9% |
| COc1ccc([C@@]23CCN(C(=O)c4ccc(Cl)c(Cl)c4)C[C@@H]2CN(C)C3)cc1OC [CBK074308T] | 99.4% |

| Compound | viability at 28.5 h, 10 µM |
| --- | --- |
| CC(=O)Nc1ccc(N2CCN(CCO)CC2)cc1OCCCOc1ccccc1 [CBK074317T] | 110% |
| CCC1CCCCN1C(=O)c1cc2cc(Cl)ccc2[nH]1 (stereo not drawn) [CBK074329] | 102% |
| COc1ccc(C(=O)N2CCC(Cc3ccccc3)CC2)cc1 [CBK074337] | 95.8% |
| COc1ccc(C(=O)N2CCC(C)CC2)cc1[N+](=O)[O-] [CBK074341] | 93.3% |
| O=C1CC(NCc2ccc3c(c2)OCO3)C(=O)N1c1ccc(OC(F)(F)Cl)cc1 (stereo not drawn) [CBK074357] | 87.7% |
| O=C(/C=C\c1ccc(Cl)cc1Cl)N1CCN(Cc2ccc3c(c2)OCO3)CC1 [CBK074371] | 97.3% |
| Cc1cc(OCC(O)CN2CCN(Cc3ccc4c(c3)OCO4)CC2)cc(C)c1Cl (stereo not drawn) [CBK074374] | 93.4% |
| COc1cccc(CN2CCN(C(=O)c3ccco3)CC2)c1OC [CBK074380] | 87.4% |
| Cc1cc(Cl)ccc1OCC(O)CN1CCN(Cc2ccc3c(c2)OCO3)CC1 (stereo not drawn) [CBK074383] | 92.3% |
| COc1ccc(CCNc2ncnc3sc4c(c23)CCCCC4)cc1OC [CBK074384] | 89.9% |
| O=C(CN1CCN(Cc2ccc3c(c2)OCO3)CC1)Nc1ccc(SC(F)(F)F)cc1 [CBK074385] | 108% |
| COc1cc(CNc2ccc(N3CCOCC3)c(Cl)c2)ccc1OCc1ccccc1F [CBK074392] | 93.6% |
| N#Cc1c(Nc2cccc(C(F)(F)F)c2)sc(C(=O)c2ccc3c(c2)OCO3)c1N [CBK074399] | 89.2% |
| O=C1CC(N2CCN(Cc3ccc4c(c3)OCO4)CC2)C(=O)N1c1ccc(Cl)cc1 (stereo not drawn) [CBK074402] | 103% |
| Cc1ccc(NC(=O)CN2CCN(Cc3ccc4c(c3)OCO4)CC2)cc1 [CBK074403] | 102% |
| O=C1c2cccc3cccc(c23)C(=O)N1CC1CCN(CC(O)COCc2ccccc2)CC1 (stereo not drawn) [CBK074407C] | 84.4% |
| COc1ccc(CN2CCN(C(=O)c3cccs3)CC2)cc1OC [CBK074410] | 104% |
| COc1ccccc1OCc1ccc(C(=O)N2CCN(c3cccc(C(F)(F)F)c3)CC2)o1 [CBK074417] | 62.7% |
| O=C(CCN1C(=O)c2cccc3cccc(c23)C1=O)N1CCN(Cc2ccc3c(c2)OCO3)CC1 [CBK074420] | 96.2% |
| COc1cccc(CNc2cccc(C(=O)O)c2)c1OCc1ccc(Cl)cc1Cl [CBK074424] | 91.3% |
| COc1ccc(C(=O)c2sc3nc(C)c(C)c(C)c3c2N)cc1OC [CBK074427] | 72.7% |
